Results on five compounds are retold here after article PMC10675077, “Antimicrobial Properties of New Polyamines Conjugated with Oxygen-Containing Aromatic Functional Groups” (Molecules, 2023).

Values after ≈ are worked out from the molar mass of the structure shown. Read-outs that look alike come from different tables or passages of the source.

Broadly, the MIC is the least concentration at which growth counts as inhibited.

Assay [1] concerns Yeast (S. cerevisiae strains). The assay can be described thus: MIC, yeast (strain not specified). Particulars: for MIC: Saccharomyces cerevisiae, read-out: MIC Yeast. The format is cell-based, Saccharomyces cerevisiae. The method, then:
The determination of the MIC for yeast strains was carried out following a similar procedure to that of the polyamines and antifungal reference agents: Serial dilutions of each one in phosphate buffer (20 mM, pH 7.4, 0.5 mL) were prepared and mixed with a suspension of yeast cells (OD600 0.04 in SC-ura 2X (VWR, Atlanta, GA, USA), 0.5 mL). […] Experiments were carried out at least three times in all cases.

Assay [2] deals with Escherichia coli JM101. The assay can be described thus: MIC, microdilution in culture medium, E. coli. It is filed as cell-based. Particulars: 20 h, 37 °C, average of at least three experiments; for MIC: Escherichia coli, JM101, read-out: MIC, Bacteria, E. coli JM101. The source says:
The microorganisms used for the susceptibility tests were the bacteria Escherichia coli JM101 and Staphylococcus aureus BHI, and the yeast Saccharomyces cerevisiae strains BY4741 (MAT a his3Δ1 leu2Δ0 met15Δ0 ura3Δ0 (EUROSCARF)) carrying YEplac195 (from EUROSCARF) or YEPlac195-PDR5 (provided by Ayse Banu Demir, Izmir University of Economics, Turkey) plasmids.
Bacterial strains were usually maintained and grown in an LB medium (0.5% (w/v) yeast extract, 1% (w/v) bactotryptone, and 1% (w/v) NaCl) at 37 °C. For MIC (minimal inhibitory concentration) and MMC (minimal microbicidal concentration) assays, and for the determination of synergies, overnight growth was carried out in 2% (w/v) bactopeptone (BP), and then the cultures were diluted and incubated for several hours in 2% (w/v) BP for ensuring logarithmic growth. Yeast strains were grown in an SC-ura medium (0.17% (w/v) yeast nitrogen base without amino acids and ammonium sulphate, 0.2% (w/v) drop-out without uracil, 0.5% (w/v) (NH4)2SO4, and 2% (w/v) glucose) at 30 °C. Liquid cultures were incubated with shaking (200 rpm). Solid media also contained 2% (w/v) agar.
For the analysis of the antimicrobial activity, the strategies and indications of Cushnie et al. were considered. The standardised method of microdilution in a culture medium was followed to determine the MIC [55]. In bacterial strains, serial dilutions of the compounds to be tested and the control antibiotics were prepared in phosphate buffer (20 mM, pH 7.4, 0.5 mL) and were mixed with a suspension of bacterial cells in a logarithmic growth phase (in 1% BP, 0.5 mL). The final OD600 of the whole solutions were 0.004 and 0.008 for E. coli and S. aureus cultures, respectively. After 20 h of incubation at 37 °C with shaking, the MIC was determined as the lowest concentration of each compound in which no visible bacterial growth was observed.
On the technique in general: Dilution methods test growth across graded concentrations, often in twofold steps.

The subject of assay [3] is BY4741/YEplac195. Nature of the assay: Checkerboard titration synergy, BY4741/YEplac195. Particulars: synergistic when FICI ≤0.5. The format is cell-based, Saccharomyces cerevisiae. How it is done:
The combined antimicrobial activity of the test compounds with the antibacterial or antifungal control agents was performed under the same conditions used for the MIC determination and following the procedures described by Carton Herrán, Reis de Sá et al. and Zharkova et al.. For each experiment, 16 samples (4 rows × 4 columns) in a total volume of 0.5 mL were prepared in tubes using an array of combinations between the MIC value and 0 μg/mL of the compound to be tested in each row, and between the MIC value and 0 μg/mL of the reference drug in each column. In this way, a variety of mixtures with different concentrations of them alone or in combination was obtained. Briefly, 0.5 mL of a microorganism culture was added to each one of the samples, and after incubation for 24 h with shaking at the appropriate temperature (37 °C or 30 °C), the tubs were visually inspected, and the OD600 was measured. From this information, the fractional inhibitory concentration index (FICI) was calculated according to the formula FIC index = ([A]/[CMI A]) + ([B]/[CMI B]), where [A] and [B] are respective concentrations of tested polyamine and reference drug in their combination effectively inhibiting the growth of bacteria or yeast, and [MIC A] and [MIC B] are the individual MICs of the tested polyamine and reference drug when they are used alone. An interaction is considered synergistic when the FICI value is ≤0.5 [41, 42].
To confirm the data obtained in the checkerboard assay, 30 μL of a ten-fold dilution of the tubes containing concentrations of half of the MIC of each one of the compounds alone (polyamine to be tested and reference drug) and one fourth of the MIC of each one in combination were also spread in LB or SC-ura plates (according to the microorganism considered in each case) and incubated at 37 °C or 30 °C. The visualisation of these plates was performed after 24 or 48 h, respectively. All these experiments were carried out in triplicate.

For assay [4], the system named is yeast cells. Nature of the assay: Intracellular ATP by luciferase bioluminescence, yeast. The format is cell-based, Saccharomyces cerevisiae. Particulars: 50-fold the MIC, overnight treatment. How it is done:
The procedure described by Lehtinen et al. was followed, with the modifications indicated herein. In the case of bacteria, 1.5 OD600 units were incubated overnight in 1 mL of final volume with 5-fold MIC concentrations. Then, the cells were collected, washed 3 times in 20 mM phosphate buffer pH 7.4, and lysed in 200 μL of LS1 (50 mM of glucose, 25 mM of Tris-HCl pH 8.0, and 10 mM of EDTA pH 8.0) containing 5 mg/mL of lysozyme and the same volume of glass beads (425–600 μm), by stirring 10 times for 15 s each. Then, the solution was centrifuged at 14,800× g for 15 min, and the supernatant was used for a luciferase assay. For this purpose, in each well of a microtiter plate, 100 μL of luciferase assay buffer (0.015 M of MgSO4, 0.015 M of KH2PO4 pH 8, 0.004 M of EGTA pH 8, and 2 mM of DTT) was added together to a 50 μL of 0.3 mg/mL luciferin solution in 0.01% (w/v) Triton X-100 and 50 μL of the cell extract. Finally, 15 μL of a 67 μg/mL aqueous solution of luciferase was added. Light emission was immediately detected using a Luminoskan Ascent instrument (Thermo Scientific, Waltham, MA, USA) for 1 s per well. Glass beads, lysozyme, luciferin, and luciferase were purchased from Sigma-Aldrich.
[…] Then, cells were collected and washed as above and resuspended in 500 μL of LS2 (140 mM of NaCl, 1.5 mM of MgCl2, 10 mM of Tris-HCl pH 8.0, and 0.5% (v/v) NP40). Cells were lysed in the presence of 1 volume of glass beads as described above. The next steps were carried out as in the case of bacterial samples.
Experiments were carried out at least in triplicate in all cases, and control drugs and SDS (0.1% (w/v) of the final concentration) were also included.

The mark [5] stands for this setting: yeast strain not specified (Tables 5 and 10).

On to `Oc1ccc(CNCCN2CCNCc3cccc(n3)CNCC2)cc1` [Compound 7a], for which the MIC was 295 µg/mL (≈ 830 µM) in assay [1] and 13 µg/mL in assay [2].

As for “N^1-(benzo[d][1,3]dioxol-5-ylmethyl)-N^3-(2-((2-((3-((benzo[d][1,3]dioxol-5-ylmethyl)amino)propyl)amino)ethyl)(2-((3-(((2,3-dihydrobenzofuran-6-yl)methyl)amino)propyl)amino)ethyl)amino)ethyl)propane-1,3-diamine [Compound 4a]”, in assay [1] (setting [5]), the “MIC Yeast” value amounted to 150 µg/mL. Besides, in assay [2], the “MIC, Bacteria, E. coli JM101” value worked out at 5 µg/mL. Moreover, in assay [3], the “Synergy with Amphotericin B” value is “positive results and +”; the “Synergy with Cycloheximide” value was “Sinergy and positive results and +”; the “Synergy with Fluconazole” value was “Sinergy and synergic and +”.

`Oc1ccccc1CNCCN1CCNCc2cccc(n2)CNCC1` [Compound 6a]: in assay [1] (setting [5]), the MIC came out at 45 µg/mL (≈ 127 µM). For the same compound, in assay [4], the “Intracellular ATP level relative to untreated cells” value is 50–70%. The MIC in assay [2] was determined as 2.5 µg/mL. Moreover, in assay [3], the “Synergy with Amphotericin B” value is “positive results and +”; the “Synergy with Cycloheximide” value is “positive results and +”; the “Synergy with Fluconazole” value is “-”.

Regarding `c1cc2nc(c1)CNCCN(CCNCc1ccc3c(c1)CCO3)CCNC2` [Compound 8a, 2-(3,6,9-triaza-1(2,6)-pyridinacyclodecaphane-6-yl)-N-((2,3-dihydrobenzofuran-5-yl)methyl)ethan-1-amine], the MIC came out at 400 µg/mL (≈ 1050 µM) in assay [1] (setting [5]) and 15 µg/mL in assay [2].

As to `c1cc2nc(c1)CNCCN(CCNCc1ccc3c(c1)OCO3)CCNC2` [Compound 5a, 2-(3,6,9-triaza-1(2,6)-pyridinacyclodecaphane-6-yl)-N-(benzo[d][1,3]dioxol-5-ylmethyl)ethan-1-amine], in assay [1] (setting [5]), the MIC amounted to 60 µg/mL (≈ 156 µM). Also, the “Intracellular ATP level relative to untreated cells” value in assay [4] was 50–70%. In assay [2], the MIC amounted to 5 µg/mL. Further, in assay [3], the “Synergy with Amphotericin B” value was “positive results and +”; the “Synergy with Cycloheximide” value was “Sinergy and positive results and +”; the “Synergy with Fluconazole” value is “Sinergy and synergic and +”.
